Assay results from patent publication US20250230193A1, “CYCLIC COMPOUND HAVING SELECTIVE KRAS INHIBITORY EFFECT ON HRAS AND NRAS” (CHUGAI SEIYAKU KABUSHIKI KAISHA, priority 2022, published 2025).

Columns and labels:
[1] = biological target: GDP-bound NRAS wild-type protein (Homo sapiens, UniProt P01111); test: Binding to NRAS by surface plasmon resonance (SPR), Single Cycle Kinetics; conditions: KD ratio NRAS/KRAS, SPR
[2] = biological target: GDP-bound HRAS wild-type protein (Homo sapiens, UniProt P01112); test: Binding to HRAS by surface plasmon resonance (SPR), Single Cycle Kinetics; conditions: KD ratio HRAS/KRAS, SPR
Chain of GDP-bound HRAS wild-type protein (P01112 whole entry): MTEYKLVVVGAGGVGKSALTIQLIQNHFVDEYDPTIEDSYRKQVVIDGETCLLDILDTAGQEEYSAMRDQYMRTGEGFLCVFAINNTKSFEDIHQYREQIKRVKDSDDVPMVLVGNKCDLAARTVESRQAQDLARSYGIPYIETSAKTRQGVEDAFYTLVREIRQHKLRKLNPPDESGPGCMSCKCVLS

Chain of GDP-bound NRAS wild-type protein (P01111 whole entry): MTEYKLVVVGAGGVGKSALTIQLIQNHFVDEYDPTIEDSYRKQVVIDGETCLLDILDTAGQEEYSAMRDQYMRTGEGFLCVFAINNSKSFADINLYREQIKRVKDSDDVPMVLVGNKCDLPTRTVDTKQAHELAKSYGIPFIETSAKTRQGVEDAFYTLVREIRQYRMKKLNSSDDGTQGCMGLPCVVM

Compound	NRAS/KRAS (ratio of KD value with respect to GDP-bound NRAS wild-type protein to KD value with respect to KRAS) [1]	HRAS/KRAS (ratio of KD value with respect to GDP-bound HRAS wild-type protein to KD value with respect to KRAS) [2]
CC[C@H](C)[C@@H]1NC(=O)[C@H](CC(C)C)N(C)C(=O)C[C@@H](C(=O)N2CCOCC2)N(C)C(=O)[C@H](C2CCCC2)N(C)C(=O)C2(CCCC2)NC(=O)[C@@H]2CCCN2C(=O)[C@H](CCc2ccc(C(F)(F)F)c(Cl)c2)NC(=O)CN(C)C(=O)[C@H](Cc2ccccc2)N2CCCC[C@@H](C2=O)N(C)C(=O)CN(C)C1=O [PP0529]	C (A compound having a KD ratio of 0.1 or more and less than 3 is denoted as C)	B (a compound having 3 or more and less than 10 is denoted as B)
CC[C@H](C)[C@@H]1NC(=O)[C@H](CC(C)C)N(C)C(=O)C[C@@H](C(=O)N2CCOCC2)N(C)C(=O)[C@H](C2CCCC2)N(C)C(=O)C2(CCCC2)NC(=O)[C@@H]2CCCN2C(=O)[C@H](CCc2ccc(C(F)(F)F)c(Cl)c2)NC(=O)CN(C)C(=O)[C@H](Cc2ccc(F)cc2)N2CCCC[C@@H](C2=O)N(C)C(=O)CN(C)C1=O [PP0530]	C (A compound having a KD ratio of 0.1 or more and less than 3 is denoted as C)	B (a compound having 3 or more and less than 10 is denoted as B)
CC[C@H](C)[C@@H]1NC(=O)[C@H](CC(C)C)N(C)C(=O)C[C@@H](C(=O)N2CCOCC2)N(C)C(=O)[C@H](C2CCCC2)N(C)C(=O)C2(CCCC2)NC(=O)[C@@H]2CCCN2C(=O)[C@H](CCc2ccc(C(F)(F)F)c(Cl)c2)NC(=O)CN(C)C(=O)[C@H](Cc2ccc(Cl)cc2)N2CCCC[C@@H](C2=O)N(C)C(=O)CN(C)C1=O [PP0532]	C (A compound having a KD ratio of 0.1 or more and less than 3 is denoted as C)	B (a compound having 3 or more and less than 10 is denoted as B)
CC[C@H](C)[C@@H]1NC(=O)[C@H](CC(C)C)N(C)C(=O)C[C@@H](C(=O)N2CCOCC2)N(C)C(=O)[C@H](C2CCCC2)N(C)C(=O)C2(CCCC2)NC(=O)[C@@H]2CCCN2C(=O)[C@H](CCc2ccc(C(F)(F)F)c(Cl)c2)NC(=O)CN(C)C(=O)[C@H](Cc2ccc(Cl)cc2)N2CC=CC[C@@H](C2=O)N(C)C(=O)CN(C)C1=O [PP0533]	C (A compound having a KD ratio of 0.1 or more and less than 3 is denoted as C)	C (A compound having a KD ratio of 0.1 or more and less than 3 is denoted as C)
CC[C@H](C)[C@@H]1NC(=O)[C@H](CC(C)C)N(C)C(=O)C[C@@H](C(=O)N2CCOCC2)N(C)C(=O)[C@H](C2CCCC2)N(C)C(=O)C2(CCCC2)NC(=O)[C@@H]2CCCN2C(=O)[C@H](CCc2ccc(C(F)(F)F)c(Cl)c2)NC(=O)CN(C)C(=O)[C@H](Cc2ccc(OC)cc2)N2CCCC[C@@H](C2=O)N(C)C(=O)CN(C)C1=O [PP0534]	B (a compound having 3 or more and less than 10 is denoted as B)	B (a compound having 3 or more and less than 10 is denoted as B)
CC[C@H](C)[C@@H]1NC(=O)[C@H](CC(C)C)N(C)C(=O)C[C@@H](C(=O)N2CCOCC2)N(C)C(=O)[C@H](C2CCCC2)N(C)C(=O)C2(CCCC2)NC(=O)[C@@H]2CCCN2C(=O)[C@H](CCc2ccc(C(F)(F)F)c(Cl)c2)NC(=O)CN(C)C(=O)[C@H](Cc2ccc(OC)cc2)N2CC=CC[C@@H](C2=O)N(C)C(=O)CN(C)C1=O [PP0535]	C (A compound having a KD ratio of 0.1 or more and less than 3 is denoted as C)	B (a compound having 3 or more and less than 10 is denoted as B)
CC[C@H](C)[C@@H]1NC(=O)[C@H](CC(C)C)N(C)C(=O)C[C@@H](C(=O)N2CCOCC2)N(C)C(=O)[C@H](C2CCCC2)N(C)C(=O)C2(CCCC2)NC(=O)[C@@H]2CCCN2C(=O)[C@H](CCc2ccc(C(F)(F)F)c(Cl)c2)NC(=O)CN(C)C(=O)[C@H](Cc2ccc(OC(F)(F)F)cc2)N2CCCC[C@@H](C2=O)N(C)C(=O)CN(C)C1=O [PP0536]	B (a compound having 3 or more and less than 10 is denoted as B)	B (a compound having 3 or more and less than 10 is denoted as B)
CC[C@H](C)[C@@H]1NC(=O)[C@H](CC(C)C)N(C)C(=O)C[C@@H](C(=O)N2CCOCC2)N(C)C(=O)[C@H](C2CCCC2)N(C)C(=O)C2(CCCC2)NC(=O)[C@@H]2CCCN2C(=O)[C@H](CCc2ccc(C(F)(F)F)c(Cl)c2)NC(=O)CN(C)C(=O)[C@H](Cc2ccc(OC(F)(F)F)cc2)N2CC=CC[C@@H](C2=O)N(C)C(=O)CN(C)C1=O [PP0537]	C (A compound having a KD ratio of 0.1 or more and less than 3 is denoted as C)	C (A compound having a KD ratio of 0.1 or more and less than 3 is denoted as C)
CC[C@H](C)[C@@H]1NC(=O)[C@H](CC(C)C)N(C)C(=O)C[C@@H](C(=O)N2CCOCC2)N(C)C(=O)[C@H](C2CCCC2)N(CC)C(=O)C2(CCCC2)NC(=O)[C@@H]2CCCN2C(=O)[C@H](CCc2cc(F)c(C(F)(F)F)c(F)c2)NC(=O)CN(C)C(=O)[C@H](Cc2ccc(C(F)(F)F)cc2)N2CCCC[C@@H](C2=O)N(C)C(=O)CN(C)C1=O [PP0538]	B (a compound having 3 or more and less than 10 is denoted as B)	B (a compound having 3 or more and less than 10 is denoted as B)
CC[C@H](C)[C@@H]1NC(=O)[C@H](CC(C)C)N(C)C(=O)C[C@@H](C(=O)N2CCOCC2)N(CC)C(=O)[C@H](C2CCCC2)N(C)C(=O)C2(CCCC2)NC(=O)[C@@H]2CCCN2C(=O)[C@H](CCc2cc(F)c(C(F)(F)F)c(F)c2)NC(=O)CN(C)C(=O)[C@H](Cc2ccc(C(F)(F)F)cc2)N2CCCC[C@@H](C2=O)N(C)C(=O)CN(C)C1=O [PP0539]	B (a compound having 3 or more and less than 10 is denoted as B)	B (a compound having 3 or more and less than 10 is denoted as B)
CC[C@H](C)[C@@H]1NC(=O)[C@H](CC(C)C)N(C)C(=O)C[C@@H](C(=O)N2CCOCC2)N(C)C(=O)[C@H](C2CCCC2)NC(=O)C2(CCCC2)NC(=O)[C@@H]2CCCN2C(=O)[C@H](CCc2cc(F)c(C(F)(F)F)c(F)c2)NC(=O)CN(C)C(=O)[C@H](Cc2ccc(C(F)(F)F)cc2)N2CCCC[C@@H](C2=O)N(C)C(=O)CN(C)C1=O [PP0540]	B (a compound having 3 or more and less than 10 is denoted as B)	B (a compound having 3 or more and less than 10 is denoted as B)
